Laboratory results reported in paper PMC6576746, “Rational discovery of dual-indication multi-target PDE/Kinase inhibitor for precision anti-cancer therapy using structural systems pharmacology” (PLoS Computational Biology, 2019).

Tests used:
Test in all cases: biochemical
Parameters in all cases: DiscoverX KinomeScan competition binding assay across human kinases; per cent of control at 10 and 100 uM
MAP4K3 = MAP4K3 (Homo sapiens, UniProt Q8IVH8); conditions: competition binding, % of control; read-out: Percent Control (100 uM Levosimendan)
How it was run: (§1)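 KinomeScan competition binding was run across a human kinase panel at 10 μM and 100 μM levosimendan. Results are %control = (test − positive control)/(negative control − positive control) × 100.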

[1] = target: T1, RPS6KA4(Kin.Dom.1-N-terminal) (Homo sapiens, UniProt O75676); conditions: competition binding, % of control; read-out: Percent Control (100 uM Levosimendan)
T1 construct: Kin.Dom.1-N-terminal
How it was run: as §1

FRK = FRK (Homo sapiens, UniProt P42685); conditions: competition binding, % of control; read-out: Percent Control (100 uM Levosimendan)
Sequence of FRK (P42685 whole entry): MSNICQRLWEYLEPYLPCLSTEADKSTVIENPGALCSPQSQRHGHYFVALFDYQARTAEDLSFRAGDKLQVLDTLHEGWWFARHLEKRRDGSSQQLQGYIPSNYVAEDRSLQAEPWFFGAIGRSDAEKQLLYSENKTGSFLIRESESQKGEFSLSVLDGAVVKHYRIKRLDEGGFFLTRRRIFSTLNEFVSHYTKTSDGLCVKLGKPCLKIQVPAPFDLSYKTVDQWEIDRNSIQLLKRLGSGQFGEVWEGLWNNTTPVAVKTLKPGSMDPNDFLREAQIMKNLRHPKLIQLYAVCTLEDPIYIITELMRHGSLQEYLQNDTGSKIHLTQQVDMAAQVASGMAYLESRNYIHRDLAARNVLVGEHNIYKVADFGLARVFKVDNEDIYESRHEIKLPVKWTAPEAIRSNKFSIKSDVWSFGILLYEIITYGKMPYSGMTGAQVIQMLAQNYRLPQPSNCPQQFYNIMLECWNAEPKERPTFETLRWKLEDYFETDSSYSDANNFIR
How it was run: as §1

LATS2 = LATS2 (Homo sapiens, UniProt Q9NRM7); conditions: competition binding, % of control; read-out: Percent Control (100 uM Levosimendan)
How it was run: as §1

LKB1 = target: T2, LKB1 (Homo sapiens, UniProt Q15831); conditions: competition binding, % of control; read-out: Percent Control (100 uM Levosimendan)
T2 construct: gene STK11
How it was run: as §1

ACVRL1 = ACVRL1 (Homo sapiens, UniProt P37023); conditions: competition binding, % of control
Sequence of ACVRL1 (P37023 whole entry): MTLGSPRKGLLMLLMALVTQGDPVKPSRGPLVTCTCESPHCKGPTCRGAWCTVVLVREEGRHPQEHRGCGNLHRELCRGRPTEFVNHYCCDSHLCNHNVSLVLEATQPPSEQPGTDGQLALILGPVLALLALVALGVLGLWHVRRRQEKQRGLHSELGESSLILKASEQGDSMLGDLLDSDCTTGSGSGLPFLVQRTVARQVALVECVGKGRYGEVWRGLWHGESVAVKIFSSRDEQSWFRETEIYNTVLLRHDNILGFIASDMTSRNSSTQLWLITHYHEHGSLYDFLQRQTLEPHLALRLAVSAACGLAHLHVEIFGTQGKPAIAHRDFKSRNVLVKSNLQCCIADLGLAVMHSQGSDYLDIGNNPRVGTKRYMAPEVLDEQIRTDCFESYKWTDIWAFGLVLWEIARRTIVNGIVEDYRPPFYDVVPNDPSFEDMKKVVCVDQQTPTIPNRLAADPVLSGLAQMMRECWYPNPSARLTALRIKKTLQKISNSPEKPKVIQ
How it was run: as §1

[2] = target: T3, RSK4(Kin.Dom.2-C-terminal) (Homo sapiens, UniProt Q9UK32); conditions: competition binding, % of control
T3 construct: gene RPS6KA6; Kin.Dom.2-C-terminal
T3 sequence (Q9UK32 whole entry): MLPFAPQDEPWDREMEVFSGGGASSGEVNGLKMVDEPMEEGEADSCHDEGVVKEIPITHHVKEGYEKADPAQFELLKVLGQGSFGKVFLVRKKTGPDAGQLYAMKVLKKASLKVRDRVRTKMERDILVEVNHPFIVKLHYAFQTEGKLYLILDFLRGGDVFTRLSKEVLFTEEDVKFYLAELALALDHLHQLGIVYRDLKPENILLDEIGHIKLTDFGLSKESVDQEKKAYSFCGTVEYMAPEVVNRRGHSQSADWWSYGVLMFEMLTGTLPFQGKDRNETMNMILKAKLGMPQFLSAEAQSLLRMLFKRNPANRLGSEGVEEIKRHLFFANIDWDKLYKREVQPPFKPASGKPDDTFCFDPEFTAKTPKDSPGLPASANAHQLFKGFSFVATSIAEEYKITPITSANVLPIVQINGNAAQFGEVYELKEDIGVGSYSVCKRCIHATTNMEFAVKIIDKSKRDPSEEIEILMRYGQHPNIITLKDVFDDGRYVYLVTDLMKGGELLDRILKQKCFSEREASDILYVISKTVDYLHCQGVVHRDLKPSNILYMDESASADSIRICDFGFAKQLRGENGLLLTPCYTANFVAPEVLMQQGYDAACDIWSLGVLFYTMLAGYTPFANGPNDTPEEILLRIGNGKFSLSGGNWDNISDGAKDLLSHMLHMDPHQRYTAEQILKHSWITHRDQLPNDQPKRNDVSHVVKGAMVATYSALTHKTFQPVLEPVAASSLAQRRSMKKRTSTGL
How it was run: as §1

EGFR(L747-T751del,Sins) = EGFR(L747-T751del,Sins) (Homo sapiens, UniProt P00533, DEL747-750/T751S); conditions: competition binding, % of control; read-out: Percent Control (100 uM Levosimendan)
How it was run: as §1

LYN = LYN (Homo sapiens, UniProt P07948); conditions: competition binding, % of control; read-out: Percent Control (100 uM Levosimendan)
Sequence of LYN (P07948 whole entry): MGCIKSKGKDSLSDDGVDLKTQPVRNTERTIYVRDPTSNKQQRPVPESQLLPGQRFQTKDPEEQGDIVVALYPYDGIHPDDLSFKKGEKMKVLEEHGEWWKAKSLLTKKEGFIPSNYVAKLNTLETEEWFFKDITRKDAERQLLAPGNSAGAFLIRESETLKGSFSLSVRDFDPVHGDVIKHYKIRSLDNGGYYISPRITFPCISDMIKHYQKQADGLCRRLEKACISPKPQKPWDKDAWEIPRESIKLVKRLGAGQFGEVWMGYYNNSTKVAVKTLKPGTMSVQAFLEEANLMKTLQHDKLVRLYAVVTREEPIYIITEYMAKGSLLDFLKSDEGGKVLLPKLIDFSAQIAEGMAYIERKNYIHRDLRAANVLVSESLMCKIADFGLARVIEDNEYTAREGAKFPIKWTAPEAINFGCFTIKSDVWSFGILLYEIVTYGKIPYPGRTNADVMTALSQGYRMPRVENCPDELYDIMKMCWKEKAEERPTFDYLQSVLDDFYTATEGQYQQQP
How it was run: as §1

SRPK2 = SRPK2 (Homo sapiens, UniProt P78362); conditions: competition binding, % of control; read-out: Percent Control (100 uM Levosimendan)
How it was run: as §1

PLK1 = PLK1 (Homo sapiens, UniProt P53350); conditions: competition binding, % of control; read-out: Percent Control (100 uM Levosimendan)
How it was run: as §1

RAF1 = RAF1 (Homo sapiens, UniProt P04049); conditions: competition binding, % of control; read-out: Percent Control (100 uM Levosimendan)
How it was run: as §1

PDPK1 = PDPK1 (Homo sapiens, UniProt O15530); conditions: competition binding, % of control; read-out: Percent Control (100 uM Levosimendan)
How it was run: as §1

PRKCI = PRKCI (Homo sapiens, UniProt P41743); conditions: competition binding, % of control; read-out: Percent Control (100 uM Levosimendan)
Sequence of PRKCI (P41743 whole entry): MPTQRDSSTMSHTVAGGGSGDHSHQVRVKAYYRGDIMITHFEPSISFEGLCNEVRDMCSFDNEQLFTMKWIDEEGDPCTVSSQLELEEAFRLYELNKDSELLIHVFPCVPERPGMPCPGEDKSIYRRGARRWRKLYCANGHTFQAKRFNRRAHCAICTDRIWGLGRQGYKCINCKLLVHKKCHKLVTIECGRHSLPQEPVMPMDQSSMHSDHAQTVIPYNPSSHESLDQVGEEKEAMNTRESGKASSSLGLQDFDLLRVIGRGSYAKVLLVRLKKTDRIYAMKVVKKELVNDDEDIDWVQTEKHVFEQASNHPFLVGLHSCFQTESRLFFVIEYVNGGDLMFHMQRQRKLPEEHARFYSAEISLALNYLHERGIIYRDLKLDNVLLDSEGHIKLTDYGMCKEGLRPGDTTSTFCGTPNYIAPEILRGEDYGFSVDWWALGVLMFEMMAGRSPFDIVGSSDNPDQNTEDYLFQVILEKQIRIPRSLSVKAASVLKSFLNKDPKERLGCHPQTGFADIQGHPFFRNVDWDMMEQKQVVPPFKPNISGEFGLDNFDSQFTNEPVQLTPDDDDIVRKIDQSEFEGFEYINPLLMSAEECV
How it was run: as §1

DAPK3 = DAPK3 (Homo sapiens, UniProt O43293); conditions: competition binding, % of control; read-out: Percent Control (100 uM Levosimendan)
Sequence of DAPK3 (O43293 whole entry): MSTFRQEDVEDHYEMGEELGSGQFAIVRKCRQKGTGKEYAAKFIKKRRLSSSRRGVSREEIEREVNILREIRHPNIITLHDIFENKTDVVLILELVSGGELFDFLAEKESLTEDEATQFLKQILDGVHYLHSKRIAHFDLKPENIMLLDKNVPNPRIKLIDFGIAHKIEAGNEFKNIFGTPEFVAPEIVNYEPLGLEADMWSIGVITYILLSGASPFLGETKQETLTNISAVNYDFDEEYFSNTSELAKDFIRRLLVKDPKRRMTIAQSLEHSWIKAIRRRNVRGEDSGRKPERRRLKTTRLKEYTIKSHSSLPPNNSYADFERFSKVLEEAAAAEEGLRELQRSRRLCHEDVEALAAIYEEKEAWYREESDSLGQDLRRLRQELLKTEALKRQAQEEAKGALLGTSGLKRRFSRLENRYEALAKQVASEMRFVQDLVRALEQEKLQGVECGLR
How it was run: as §1

[3] = target: T4, RPS6KA5(Kin.Dom.1-N-terminal) (Homo sapiens, UniProt O75582); conditions: competition binding, % of control; read-out: Percent Control (100 uM Levosimendan)
T4 construct: Kin.Dom.1-N-terminal
T4 sequence (O75582 whole entry): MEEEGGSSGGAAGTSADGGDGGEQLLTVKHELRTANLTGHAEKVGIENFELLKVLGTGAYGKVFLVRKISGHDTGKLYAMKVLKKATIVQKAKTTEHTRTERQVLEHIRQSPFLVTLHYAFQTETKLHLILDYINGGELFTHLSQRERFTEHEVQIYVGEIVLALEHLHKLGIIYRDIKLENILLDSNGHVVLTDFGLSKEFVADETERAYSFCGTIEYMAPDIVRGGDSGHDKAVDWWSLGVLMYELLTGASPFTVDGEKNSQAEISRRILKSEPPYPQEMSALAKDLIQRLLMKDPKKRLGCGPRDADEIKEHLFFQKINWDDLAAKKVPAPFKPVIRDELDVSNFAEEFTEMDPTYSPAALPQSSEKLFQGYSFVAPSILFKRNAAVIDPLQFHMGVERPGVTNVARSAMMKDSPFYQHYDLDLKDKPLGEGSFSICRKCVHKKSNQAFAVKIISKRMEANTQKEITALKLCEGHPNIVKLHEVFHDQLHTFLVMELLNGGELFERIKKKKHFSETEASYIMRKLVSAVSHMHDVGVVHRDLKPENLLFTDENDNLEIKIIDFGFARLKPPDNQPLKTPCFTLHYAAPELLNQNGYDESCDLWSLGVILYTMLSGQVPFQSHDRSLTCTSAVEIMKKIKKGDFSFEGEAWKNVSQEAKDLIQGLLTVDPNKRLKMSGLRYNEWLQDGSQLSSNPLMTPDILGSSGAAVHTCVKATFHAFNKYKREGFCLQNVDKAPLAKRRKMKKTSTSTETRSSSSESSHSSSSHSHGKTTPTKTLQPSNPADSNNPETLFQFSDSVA
How it was run: as §1

PAK7 = target: T5, PAK7 (Homo sapiens, UniProt Q9P286); conditions: competition binding, % of control; read-out: Percent Control (100 uM Levosimendan)
T5 construct: gene PAK5
T5 sequence (Q9P286 whole entry): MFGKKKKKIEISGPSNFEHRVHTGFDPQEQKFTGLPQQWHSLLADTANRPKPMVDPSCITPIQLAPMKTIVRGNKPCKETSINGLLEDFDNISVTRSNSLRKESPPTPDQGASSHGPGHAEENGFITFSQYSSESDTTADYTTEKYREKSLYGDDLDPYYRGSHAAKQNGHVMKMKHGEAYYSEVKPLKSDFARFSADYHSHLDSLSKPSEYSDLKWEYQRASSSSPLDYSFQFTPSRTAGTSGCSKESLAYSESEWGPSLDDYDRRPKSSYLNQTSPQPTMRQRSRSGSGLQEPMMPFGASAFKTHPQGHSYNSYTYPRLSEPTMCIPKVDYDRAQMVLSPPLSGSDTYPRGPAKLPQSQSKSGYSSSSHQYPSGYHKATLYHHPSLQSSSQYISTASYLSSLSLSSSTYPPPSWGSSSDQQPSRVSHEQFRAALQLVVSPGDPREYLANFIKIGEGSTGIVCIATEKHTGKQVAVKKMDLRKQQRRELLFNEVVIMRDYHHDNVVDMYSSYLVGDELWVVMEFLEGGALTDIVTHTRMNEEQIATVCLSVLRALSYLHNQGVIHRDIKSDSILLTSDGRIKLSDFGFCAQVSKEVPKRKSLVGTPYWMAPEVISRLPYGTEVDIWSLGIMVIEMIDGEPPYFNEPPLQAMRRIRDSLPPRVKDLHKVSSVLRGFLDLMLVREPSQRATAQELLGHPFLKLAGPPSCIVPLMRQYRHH
How it was run: as §1

CAMK1D = CAMK1D (Homo sapiens, UniProt Q8IU85); conditions: competition binding, % of control; read-out: Percent Control (100 uM Levosimendan)
How it was run: as §1

LZK = target: T6, LZK (Homo sapiens, UniProt O43283); conditions: competition binding, % of control; read-out: Percent Control (100 uM Levosimendan)
T6 construct: gene MAP3K13
How it was run: as §1

[4] = read-out: Percent Control (10 uM Levosimendan)
[5] = read-out: Percent Control (100 uM Levosimendan)

- remaining binding at 100 µM (MAP4K3): 95%
- remaining binding at 100 µM [1]: 53%
- remaining binding at 100 µM (FRK): 100%
- remaining binding at 100 µM (LATS2): 100%
- remaining binding at 100 µM (LKB1): 100%
- remaining binding at 10 µM (ACVRL1; [4]): 71%
- remaining binding at 100 µM (ACVRL1; [5]): 30%
- remaining binding at 10 µM [2, 4]: 82%
- remaining binding at 100 µM [2, 5]: 31%
- remaining binding at 100 µM (EGFR(L747-T751del,Sins)): 59%
- remaining binding at 100 µM (LYN): 69%
- remaining binding at 100 µM (SRPK2): 100%
- remaining binding at 100 µM (PLK1): 100%
- remaining binding at 100 µM (RAF1): 77%
- remaining binding at 100 µM (PDPK1): 100%
- remaining binding at 100 µM (PRKCI): 58%
- remaining binding at 100 µM (DAPK3): 60%
- remaining binding at 100 µM [3]: 62%
- remaining binding at 100 µM (PAK7): 79%
- remaining binding at 100 µM (CAMK1D): 57%
- remaining binding at 100 µM (LZK): 100%
Compound: C[C@@H]1CC(=O)NN=C1c1ccc(NN=C(C#N)C#N)cc1 [levosimendan]
